Laboratory results: patent publication US8461305B2, “L-fucose α1→6 specific lectin” (J-Oil Mills, Inc., priority 2008, dated 2013)

What was measured:
[1] = frontal affinity chromatography (FAC), association constant to PA sugar chains having other L-fucose; format: binding; conditions: for association constant Ka: 25 degrees C.; for binding to non-L-fucose α1→6 sugar chain: FAC
Procedure: (§1) The following section will describe a method of calculating an association constant by frontal affinity chromatography (FAC). This method is based on the following principle. […] Then, the elution front end (front) is observed immediately. When there is an affinity with lectin, the elution of the sugar chain is delayed.
(§2) The preparation of a lectin column used in the apparatus is performed in the method as described below. 1. Purified lectin is dissolved in 0.1 to 0.2M of NaHCO3 buffer solution (pH 8.3 to 8.5). 2. The lectin is immobilized, via a lectin primary amino group, a carrier such as NHS activated sepharose. 3. Then, the lectin is blocked by Tris buffer solution including primary amine or ethanolamine for example. 4. Lectin-sepharose is suspended in 10 mM Tris buffer, including 0.8% of NaCl (pH 7.4, TBS). Then, lectin immobilized resin is filled in a miniature column (φ2 mm×10 mm, 31.4 μl). 5. The miniature column in which the lectin immobilized resin is filled is protected by a holder and the lectin column is connected to an FAC automatic analysis apparatus (FAC-1, SHIMADZU CORPORATION).
(§3) Then, the elution of the PA sugar chain from the column is detected by a fluorescence detector (excitation wavelength/fluorescence wavelength: 310 nm/380 nm).
(§4) Based on the detection data, by using the elution front end (Vo) of the sugar chain (PA rhamnose) not interacting with lectin as a reference, the delay (V−Vo) of the elution front end (V) of a sugar chain interacting with lectin is calculated as an interaction strength. Then, based on the following FAC criteria expressions, the association constant (Ka) between the sugar chain and lectin is calculated based on V−Vo and Bt. If the interaction strength (V−Vo value) and the association constant are higher, a higher affinity is caused between lectin and an L-fucose α1→6 sugar chain.
(§5) [In the formula, A means substance used for the elution, Ao means the initial concentration of the substance A, B means a immobilized ligand, V means the elution volume, Vo means the elution front end volume of the substance not interacting with the immobilized ligand B at all, Bt means an effective ligand amount, Kd means a dissociation constant (an inverse of the association constant)].
(§6) Pyridylaminated (PA) sugar chains shown in FIG. 1 and FIG. 2 were used to frontal affinity chromatography (FAC) analysis. PA sugars were purchased from TAKARA BIO INC., SEIKAGAKU BIOBUSINESS CORPORATION, and Masuda Chemical Industries co., LTD. PA sugar were also obtained by pyridylaminating, by GlycoTAG®(TAKARA BIO INC.), an unlabeled sugar chain or a sugar chain obtained by subjecting a sugar chain to enzyme digestion for example.
(§7) Lectin was dissolved in 0.2 M NaHCO3 buffer solution (pH 8.3) including 0.5 M NaCl and coupled to the NHS-activated sepharose (GE Healthcare Bioscience) by following the manufacturer's instructions. Then, lectin immobilized sepharose was suspended in 10 mM Tris buffer (pH 7.4, TBS) including […] and the resultant matter was filled in a miniature column (φ2 mm×10 mm, 31.4 μl).
(§8) Frontal affinity chromatography was performed using FAC automatic analysis apparatus (FAC-1, SHIMADZU CORPORATION). In particular, the above-prepared lectin column was inserted to a stainless steel holder and the holder was connected to FAC-1 apparatus. The flow rate and the column temperature were maintained at 0.125 ml/min and 25 degrees C., respectively. After the miniature column was equilibrated by the TBS, an excessive volume (0.5 ml to 4 ml) of a PA sugar chain (3.75 nM or 7.5 nM) was continuously inputted to the column using an automatic sampling apparatus.
(§9) The fluorescent strength of the eluate of the PA sugar (excitation wavelength of 310 nm and fluorescence wavelength of 380 nm) was monitored to measure the interaction strength [a difference of the front end eluate to the standard oligosaccharide (PA rhamnose): V−V0]. […]

[2] = frontal affinity chromatography (FAC), association constant to PA sugar chains having α1→6 L-fucose; format: binding; conditions: 25 degrees C.
Procedure: as §1, §2, §3, §4, §5, §6, §7, §8, §9

[3] = Sugar chain No. 728 (as listed in Table 5/12)

Substance	association constant Ka ([1]; Sugar chain No. 419) [M⁻¹]	association constant Ka ([1]; Sugar chain No. 420) [M⁻¹]	association constant Ka ([1]; Sugar chain No. 718) [M⁻¹]	association constant Ka ([1]; Sugar chain No. 719) [M⁻¹]	association constant Ka ([1]; Sugar chain No. 720) [M⁻¹]	association constant Ka ([1]; Sugar chain No. 721) [M⁻¹]	association constant Ka ([1]; Sugar chain No. 722) [M⁻¹]	association constant Ka ([1]; Sugar chain No. 723) [M⁻¹]	association constant Ka ([1]; Sugar chain No. 726) [M⁻¹]	association constant Ka ([1]; Sugar chain No. 727) [M⁻¹]	association constant Ka [1, 3] [M⁻¹]	association constant Ka ([1]; Sugar chain No. 729) [M⁻¹]	association constant Ka ([1]; Sugar chain No. 730) [M⁻¹]	association constant Ka ([1]; Sugar chain No. 731) [M⁻¹]	association constant Ka ([1]; Sugar chain No. 739) [M⁻¹]	association constant Ka ([1]; Sugar chain No. 909) [M⁻¹]	association constant Ka ([1]; Sugar chain No. 910) [M⁻¹]	association constant Ka ([1]; Sugar chain No. 931) [M⁻¹]	association constant Ka ([1]; Sugar chain No. 932) [M⁻¹]	association constant Ka ([1]; Sugar chain No. 933) [M⁻¹]	other results
Aspergillus oryzae lectin [AOL, reference compound]	<1000	<1000	170000	<1000	<1000	<1000	56000	<1000	<1000	76000	12000	<1000	<1000	<1000	<1000	44000	56000	99000	<1000	31000	association constant Ka ([2]; Sugar chain No. 015): 130000 M⁻¹; association constant Ka ([2]; Sugar chain No. 201): 120000 M⁻¹; association constant Ka ([2]; Sugar chain No. 202): 120000 M⁻¹; association constant Ka ([2]; Sugar chain No. 203): 130000 M⁻¹; association constant Ka ([2]; Sugar chain No. 401): 140000 M⁻¹; association constant Ka ([2]; Sugar chain No. 402): 160000 M⁻¹; association constant Ka ([2]; Sugar chain No. 403): 130000 M⁻¹; association constant Ka ([2]; Sugar chain No. 404): 150000 M⁻¹; association constant Ka ([2]; Sugar chain No. 405): 130000 M⁻¹; association constant Ka ([2]; Sugar chain No. 406): 110000 M⁻¹; association constant Ka ([2]; Sugar chain No. 407): 110000 M⁻¹; association constant Ka ([2]; Sugar chain No. 410): 100000 M⁻¹; association constant Ka ([2]; Sugar chain No. 413): 79000 M⁻¹; association constant Ka ([2]; Sugar chain No. 418): 63000 M⁻¹; association constant Ka ([2]; Sugar chain No. 601): 140000 M⁻¹; association constant Ka ([2]; Sugar chain No. 602): 140000 M⁻¹
Lepista sordida lectin [LSL, novel lectin purified from the mushroom Lepista sordida]	<1000	<1000	<1000	<1000	<1000	<1000	<1000	<1000	<1000	<1000	<1000	<1000	<1000	<1000	<1000	<1000	<1000	<1000	<1000	<1000	binding to non-L-fucose α1→6 sugar chain [1]: not detected at all; association constant Ka ([2]; Sugar chain No. 015): 190000 M⁻¹; association constant Ka ([2]; Sugar chain No. 201): 230000 M⁻¹; association constant Ka ([2]; Sugar chain No. 202): 230000 M⁻¹; association constant Ka ([2]; Sugar chain No. 203): 200000 M⁻¹; association constant Ka ([2]; Sugar chain No. 401): 220000 M⁻¹; association constant Ka ([2]; Sugar chain No. 402): 150000 M⁻¹; association constant Ka ([2]; Sugar chain No. 403): 220000 M⁻¹; association constant Ka ([2]; Sugar chain No. 404): 260000 M⁻¹; association constant Ka ([2]; Sugar chain No. 405): 220000 M⁻¹; association constant Ka ([2]; Sugar chain No. 406): 160000 M⁻¹; association constant Ka ([2]; Sugar chain No. 410): 160000 M⁻¹; association constant Ka ([2]; Sugar chain No. 418): 160000 M⁻¹; association constant Ka ([2]; Sugar chain No. 602): 130000 M⁻¹
Naematoloma sublateritium lectin [NSL]	<1000	<1000	<1000	<1000	<1000	<1000	<1000	<1000	<1000	<1000	<1000	<1000	<1000	<1000	<1000	<1000	<1000	<1000	<1000	<1000	binding to non-L-fucose α1→6 sugar chain [1]: not detected at all; association constant Ka ([2]; Sugar chain No. 015): 36000 M⁻¹; association constant Ka ([2]; Sugar chain No. 201): 38000 M⁻¹; association constant Ka ([2]; Sugar chain No. 202): 39000 M⁻¹; association constant Ka ([2]; Sugar chain No. 203): 30000 M⁻¹; association constant Ka ([2]; Sugar chain No. 401): 51000 M⁻¹; association constant Ka ([2]; Sugar chain No. 402): 36000 M⁻¹; association constant Ka ([2]; Sugar chain No. 403): 52000 M⁻¹; association constant Ka ([2]; Sugar chain No. 404): 43000 M⁻¹; association constant Ka ([2]; Sugar chain No. 405): 50000 M⁻¹; association constant Ka ([2]; Sugar chain No. 406): 23000 M⁻¹; association constant Ka ([2]; Sugar chain No. 410): 31000 M⁻¹; association constant Ka ([2]; Sugar chain No. 418): 35000 M⁻¹; association constant Ka ([2]; Sugar chain No. 602): 19000 M⁻¹
